Reference: US12473291B2 (priority 2019, dated 2025)

Experiments:
SD rats = assay: animal or person; format: in vivo; settings: for ED50: Rattus norvegicus, SD rats (male, 220-300 g), injection via the tail vein, disappearance of righting reflex, read-out: ED50; for 2ED50 duration / 2ED50 recovery time / Quality of recovery: SD rats; for 2ED50 duration / 2ED50 recovery time: single tail vein injection at 2×ED50; for 2ED50 duration: time from disappearance to recovery of righting reflex; for 2ED50 recovery time: time from recovery of righting reflex to free crawling; for Quality of recovery: tail vein injection; for duration and recovery time compared with remimazolam / effective dose compared with remimazolam: rats, tail vein, in words
KM mice = assay: animal or person; format: in vivo; settings: for 2ED50 duration / 2ED50 recovery time / Quality of recovery: KM mice; for 2ED50 duration / 2ED50 recovery time: single tail vein injection at 2×ED50; for 2ED50 duration: time from disappearance to recovery of righting reflex; for 2ED50 recovery time: time from recovery of righting reflex to free crawling; for Quality of recovery: tail vein injection; for ED50: Mus musculus, KM mice (male, 18-22 g), injection via the tail vein, disappearance of righting reflex, read-out: ED50; for duration and recovery time compared with remimazolam / effective dose compared with remimazolam: mice, tail vein, in words

## COC(=O)C1(OC(=O)CC[C@@H]2N=C(c3ccccn3)c3cc(Cl)c(Cl)c(Cl)c3-n3c(C)cnc32)CC1 [Example 46]
SD rats
  ED50: 6.3 mg/kg
  2ED50 duration: 3.17 min
  2ED50 recovery time: 2.28 min
  Quality of recovery: + (“+” means <1 min)
  duration and recovery time compared with remimazolam: significantly shorter
  effective dose compared with remimazolam: significantly lower
KM mice
  2ED50 duration: 1.21 min
  2ED50 recovery time: 1.08 min
  Quality of recovery: +++ (“+++” means 3-5 min)
  ED50: 32 mg/kg

## CCCOC(=O)OCOC(=O)CC[C@@H]1N=C(c2ccccn2)c2cc(Br)ccc2-n2c(C)cnc21 [Example 47]
SD rats
  ED50: 6.2 mg/kg
  2ED50 duration: 4.07 min
  2ED50 recovery time: 2.38 min
  Quality of recovery: ++ (“++” means 1-3 min)
KM mice
  2ED50 duration: 3.90 min
  2ED50 recovery time: 2.42 min
  Quality of recovery: ++++ (“++++” means 5-10 min)
  ED50: 27 mg/kg

## Cc1cnc2n1-c1ccc(Br)cc1C(c1ccccn1)=N[C@H]2CCC(=O)OCOC(=O)OC(C)C [Example 48]
SD rats
  ED50: 5.3 mg/kg
  2ED50 duration: 4.16 min
  2ED50 recovery time: 2.42 min
  Quality of recovery: +++ (“+++” means 3-5 min)
KM mice
  2ED50 duration: 8.56 min
  2ED50 recovery time: 2.48 min
  Quality of recovery: ++++ (“++++” means 5-10 min)
  ED50: 27 mg/kg

## Cc1cnc2n1-c1ccc(Br)cc1C(c1ccccn1)=N[C@H]2CCC(=O)OCOC(=O)OC(C)(C)C [Example 49]
SD rats
  ED50: 5 mg/kg
  2ED50 duration: 1.24 min
  2ED50 recovery time: 2.01 min
  Quality of recovery: + (“+” means <1 min)
  duration and recovery time compared with remimazolam: significantly shorter
  effective dose compared with remimazolam: significantly lower
KM mice
  2ED50 duration: 2.65 min
  2ED50 recovery time: 1.22 min
  ED50: 20 mg/kg
  duration and recovery time compared with remimazolam: significantly shorter
  effective dose compared with remimazolam: significantly lower

## CCC(CC)OC(=O)OCOC(=O)CC[C@@H]1N=C(c2ccccn2)c2cc(Br)ccc2-n2c(C)cnc21 [Example 50]
SD rats
  ED50: 6.3 mg/kg
  2ED50 duration: 3.56 min
  2ED50 recovery time: 2.41 min
  Quality of recovery: ++ (“++” means 1-3 min)
KM mice
  2ED50 duration: 7.84 min
  2ED50 recovery time: 1.47 min
  Quality of recovery: ++ (“++” means 1-3 min)
  ED50: 24.6 mg/kg

## Cc1cnc2n1-c1ccc(Br)cc1C(c1ccccn1)=N[C@H]2CCC(=O)OCOC(=O)OC(C)C(C)C (some centres unmarked) [Example 51]
SD rats
  ED50: 6.5 mg/kg
  2ED50 duration: 3.09 min
  2ED50 recovery time: 2.32 min
  Quality of recovery: +++ (“+++” means 3-5 min)
KM mice
  2ED50 duration: >10 min
  2ED50 recovery time: 2.39 min
  Quality of recovery: +++ (“+++” means 3-5 min)
  ED50: 27.8 mg/kg

## Cc1cnc2n1-c1ccc(Br)cc1C(c1ccccn1)=N[C@H]2CCC(=O)OCOC(=O)OC(C(C)C)C(C)C [Example 52]
SD rats
  ED50: 6.8 mg/kg
  2ED50 duration: 4.03 min
  2ED50 recovery time: 2.41 min
  Quality of recovery: ++ (“++” means 1-3 min)
KM mice
  2ED50 duration: >10 min
  2ED50 recovery time: 1.49 min
  Quality of recovery: ++++ (“++++” means 5-10 min)
  ED50: 32 mg/kg

## COC(=O)OC(C)OC(=O)CC[C@@H]1N=C(c2ccccn2)c2cc(Br)ccc2-n2c(C)cnc21 (some centres unmarked) [Example 53]
SD rats
  ED50: 6 mg/kg
  2ED50 duration: 3.18 min
  2ED50 recovery time: 2.47 min
  Quality of recovery: ++ (“++” means 1-3 min)
  duration and recovery time compared with remimazolam: significantly shorter
  effective dose compared with remimazolam: significantly lower
KM mice
  2ED50 duration: 3.61 min
  2ED50 recovery time: 2.41 min
  ED50: 25.7 mg/kg
  duration and recovery time compared with remimazolam: significantly shorter
  effective dose compared with remimazolam: significantly lower

## CCOC(=O)OC(C)OC(=O)CC[C@@H]1N=C(c2ccccn2)c2cc(Br)ccc2-n2c(C)cnc21 (some centres unmarked) [Example 54]
SD rats
  ED50: 6.4 mg/kg
  2ED50 duration: 3.22 min
  2ED50 recovery time: 2.52 min
  Quality of recovery: +++ (“+++” means 3-5 min)
  duration and recovery time compared with remimazolam: significantly shorter
  effective dose compared with remimazolam: significantly lower
KM mice
  2ED50 duration: 8.52 min
  2ED50 recovery time: 1.56 min
  ED50: 25 mg/kg
  duration and recovery time compared with remimazolam: significantly shorter
  effective dose compared with remimazolam: significantly lower

## Cc1cnc2n1-c1ccc(Br)cc1C(c1ccccn1)=N[C@H]2CCC(=O)OC(C)OC(=O)OC(C)C (some centres unmarked) [Example 55]
SD rats
  ED50: 5.2 mg/kg
  2ED50 duration: 3.28 min
  2ED50 recovery time: 2.51 min
  Quality of recovery: + (“+” means <1 min)
  duration and recovery time compared with remimazolam: significantly shorter
  effective dose compared with remimazolam: significantly lower
KM mice
  2ED50 duration: 4.65 min
  2ED50 recovery time: 1.29 min
  ED50: 28.1 mg/kg
  duration and recovery time compared with remimazolam: significantly shorter
  effective dose compared with remimazolam: significantly lower

## COC(=O)COC(=O)CC[C@@H]1N=C(c2ccccn2)c2cc(Br)ccc2-n2c(C)cnc21 [Example 56, 2-Methoxy-2-oxoethyl-3-((4S)-8-bromo-1-methyl-6-(pyridine-2-yl)-4H-benzo[f]imidazo[1,2-a][1,4]diaza-4-ylpropionate]
SD rats
  ED50: 6.8 mg/kg
  2ED50 duration: 1.05 min
  2ED50 recovery time: 1.12 min
  Quality of recovery: ++ (“++” means 1-3 min)
KM mice
  2ED50 duration: 4.08 min
  2ED50 recovery time: 1.20 min
  Quality of recovery: ++ (“++” means 1-3 min)
  ED50: 27.2 mg/kg

## CCOC(=O)COC(=O)CC[C@@H]1N=C(c2ccccn2)c2cc(Br)ccc2-n2c(C)cnc21 [Example 57, 2-Ethoxy-2-oxoethyl-3-((4S)-8-bromo-1-methyl-6-(pyridine-2-yl)-4H-benzo [f]imidazo[1,2-a][1,4]diaza-4-ylpropionate]
SD rats
  ED50: 4.7 mg/kg
  2ED50 duration: 5.07 min
  2ED50 recovery time: 2.41 min
  Quality of recovery: + (“+” means <1 min)
  duration and recovery time compared with remimazolam: significantly shorter
  effective dose compared with remimazolam: significantly lower
KM mice
  2ED50 duration: 3.90 min
  2ED50 recovery time: 2.31 min
  ED50: 25 mg/kg
  duration and recovery time compared with remimazolam: significantly shorter
  effective dose compared with remimazolam: significantly lower

## COC(=O)C1(OC(=O)CC[C@@H]2N=C(c3ccccn3)c3cc(Br)ccc3-n3c(C)cnc32)CC1 [Example 58, Methyl 1-((3-((4S)-8-bromo-1-methyl-6-(pyridine-2-yl)-4H-benzo[f]imidazo [1,2-a][1,4]diaza-4-yl)propionyl)oxy) cyclopropane-1-carboxylate]
SD rats
  ED50: 5.6 mg/kg
  2ED50 duration: 5.09 min
  2ED50 recovery time: 3.01 min
  Quality of recovery: +++ (“+++” means 3-5 min)
KM mice
  2ED50 duration: 3.18 min
  2ED50 recovery time: 1.41 min
  Quality of recovery: +++ (“+++” means 3-5 min)
  ED50: 28 mg/kg

## CCOC(=O)C1(OC(=O)CC[C@@H]2N=C(c3ccccn3)c3cc(Br)ccc3-n3c(C)cnc32)CC1 [Example 59, Ethyl 1-((3-((4S)-8-bromo-1-methyl-6-(pyridine-2-yl)-4H-benzo[f]imidazo [1,2-a][1,4]diaza-4-yl)propionyl)oxy) cyclopropane-1-carboxylate]
SD rats
  ED50: 1.76 mg/kg
  2ED50 duration: 5.02 min
  2ED50 recovery time: 2.51 min
  Quality of recovery: ++ (“++” means 1-3 min)
  duration and recovery time compared with remimazolam: significantly shorter
  effective dose compared with remimazolam: significantly lower
KM mice
  2ED50 duration: 2.77 min
  2ED50 recovery time: 1.38 min
  ED50: 13.8 mg/kg
  duration and recovery time compared with remimazolam: significantly shorter
  effective dose compared with remimazolam: significantly lower

## COC(=O)C(C)OC(=O)CC[C@@H]1N=C(c2ccccn2)c2cc(Br)ccc2-n2c(C)cnc21 (some centres unmarked) [Example 60]
SD rats
  ED50: 3.5 mg/kg
  2ED50 duration: 2.12 min
  2ED50 recovery time: 2.14 min
  Quality of recovery: +++ (“+++” means 3-5 min)
KM mice
  2ED50 duration: 2.46 min
  2ED50 recovery time: 1.47 min
  Quality of recovery: ++ (“++” means 1-3 min)
  ED50: 22.5 mg/kg

## CCOC(=O)C(C)OC(=O)CC[C@@H]1N=C(c2ccccn2)c2cc(Br)ccc2-n2c(C)cnc21 (some centres unmarked) [Example 61]
SD rats
  ED50: 2.7 mg/kg
  2ED50 duration: 1.21 min
  2ED50 recovery time: 2.01 min
  Quality of recovery: ++ (“++” means 1-3 min)
KM mice
  2ED50 duration: 3.01 min
  2ED50 recovery time: 1.58 min
  Quality of recovery: +++ (“+++” means 3-5 min)
  ED50: 29.9 mg/kg

## COC(=O)C(C)(C)OC(=O)CC[C@@H]1N=C(c2ccccn2)c2cc(Br)ccc2-n2c(C)cnc21 [Example 62, Methyl 2-((3-((4S)-8-bromo-1-methyl-6-(pyridine-2-yl)-4H-benzo[f]imidazo [1,2-a][1,4]diaza-4-yl)propionyl)oxy)-2-methylpropionate]
SD rats
  ED50: 1.3 mg/kg
  2ED50 duration: 1.08 min
  2ED50 recovery time: 2.14 min
  Quality of recovery: +++ (“+++” means 3-5 min)
KM mice
  2ED50 duration: 3.23 min
  2ED50 recovery time: 1.27 min
  Quality of recovery: +++ (“+++” means 3-5 min)
  ED50: 13.5 mg/kg

## CCc1c(Br)cc2c(c1Cl)-n1c(C)cnc1[C@H](CCC(=O)OC(C)(CC)SC(=O)OC)N=C2c1ccccn1 (some centres unmarked) [Example 63]
SD rats
  ED50: 3.5 mg/kg
  2ED50 duration: 2.03 min
  2ED50 recovery time: 2.09 min
  Quality of recovery: ++ (“++” means 1-3 min)
KM mice
  2ED50 duration: 3.14 min
  2ED50 recovery time: 2.03 min
  Quality of recovery: ++ (“++” means 1-3 min)
  ED50: 29.8 mg/kg
